# According to paper PMC8796707 (ACS chemical biology, 2020):
# Read-outs that look alike come from different tables or passages of the source.
# Legend:
# dL5** = test: Binding kinetics and affinity of dye to purified FAP; conditions: SD, N = 4
# dK (dL5(E52K)) = assay type: binding
# [1] = system: HEK293 cells expressing NLS-dL5**; test: Cell permeability testing: labeling of nuclear localized FAP; assay type: cell-based; conditions: flow cytometry, 100 nM dye, normalized to MG-nBu
# FRB-HT/dK-FKBP = test: Rapamycin chemical inducer of dimerization; assay type: biochemical; conditions: 100 nM dK fusion, 200 nM HT fusion, 250 nM rapamycin, 10 nM DAPA
# Sequence of FRB-HT/dK-FKBP (P42345 2012-2144 limits assumed): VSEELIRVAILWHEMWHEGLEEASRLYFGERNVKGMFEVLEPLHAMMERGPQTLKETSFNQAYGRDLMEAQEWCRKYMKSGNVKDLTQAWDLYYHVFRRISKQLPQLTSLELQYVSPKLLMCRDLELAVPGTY
# Sequence of FRB-HT/dK-FKBP (P62942 2-108 limits assumed, further chain): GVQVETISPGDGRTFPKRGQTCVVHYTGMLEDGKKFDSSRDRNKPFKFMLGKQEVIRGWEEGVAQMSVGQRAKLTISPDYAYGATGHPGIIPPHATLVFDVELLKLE
# dK-FRB/FKBP-HT = test: Rapamycin chemical inducer of dimerization; assay type: biochemical; conditions: 100 nM dK fusion, 200 nM HT fusion, 250 nM rapamycin, 10 nM DAPA
# Sequence of dK-FRB/FKBP-HT (P42345 2021-2113 limits assumed): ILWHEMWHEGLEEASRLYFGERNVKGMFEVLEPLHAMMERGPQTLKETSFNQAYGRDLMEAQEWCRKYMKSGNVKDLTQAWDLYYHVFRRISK
# Sequence of dK-FRB/FKBP-HT (P62942 2-108 limits assumed, further chain): as the sequence (P62942 2-108 limits assumed, further chain) above
# [2] = system: HEK293 cells expressing HT-TM-mCer3 (HaloTag); assay type: cell-based; conditions: 500 nM dye, washed 6×, then 1 μM dL5**
# [3] = system: HaloTag (HT) protein fusion; test: Binding to purified HaloTag protein fusion, denaturing SDS-PAGE
# [4] = system: HEK293 cells expressing dK-TM coplated with HT-TM-mCer3 cells; conditions: 10 nM DAPA dye
# [5] = system: HEK293 cells expressing dL5**-TM coplated with HT-TM-mCer3 cells
substance,measurement,setting,value
MG-PEG3500-HexCl [DAPA],"off rate, koff, dL5**",dL5**,1.23 ± 0.06 ×10^−4 s^−1
same,"on rate, kon, dL5**",dL5**,3.2 ± 0.2 ×10^6 M^−1 s^−1
same,"off rate, koff, dK","dK (dL5(E52K)); SD, N = 4",53 ± 2 ×10^−4 s^−1
same,"on rate, kon, dK","dK (dL5(E52K)); SD, N = 4",0.39 ± 0.03 ×10^6 M^−1 s^−1
same,difference in FAP/DAPA KD between dL5** and dK,dK (dL5(E52K)); dK versus dL5**,~ 500 fold
same,Kd,"dK (dL5(E52K)); read-out: dissociation constant, KD, dK, KD = koff/kon, SD, N = 4",13.7 ± 0.5 nM
same,NLS-dL5** labeling signal relative to MG-nBu signal,[1],5%
same,increase in FAP–DAPA signal for rapamycin induced dimerization,FRB-HT/dK-FKBP,50%
same,increase in FAP–DAPA signal for rapamycin induced dimerization,dK-FRB/FKBP-HT,100%
same,labeling of HaloTag expressing cells,[2],specifically labeled mCer3 positive cells
same,binding to purified HaloTag protein fusion,[3],irreversibly bind
same,signal increase at the contact site versus the noncontact site,[4],40 fold
same,ratio between contact and noncontact signal,[5]; 100 nM DAPA dye,1.9
same,ratio between contact and noncontact signal,[5]; DAPA dye between 0.5 nM and 10 nM,> 3.8
